Experimental data reported in US20260327221A1, “INHIBITORS OF CYCLIC GMP-AMP SYNTHASE AND USES THEREOF” (Ventus Therapeutics U.S., Inc., priority 2023, published 2026).
pIC50: −log10 of the molar value.

Target: hcGAS (Homo sapiens, UniProt Q8N884)
Assay: hcGAS LCMS assay (direct measurement of cGAMP production by LC/MS)
Format: biochemical
Conditions: 4 h incubation with enzyme and substrates; cGAMP production by LC/MS; class symbols; read-out: hcGAS LCMS IC50
Description: cGAS catalyzes the cyclization of ATP and GTP to produce cGAMP, which is the activating ligand of STING. Human cGAS (hcGAS) inhibition can thus be quantified by measuring how much cGAMP is formed either indirectly, by monitoring ATP-depletion as in the hcGAS Kinase-Glo assay (as described below), or directly, such as using the hcGAS LCMS assay (as described below).
2. hGAS LCMS Assay Conditions
Compounds were tested for their hcGAS inhibition activity using direct measurement of cGAMP production by LC/MS. Briefly, compounds were incubated with enzyme and substrates for 4 hours (see Table C), before the reaction was stopped with 3 volumes of 70/30 Acetonitrile/H2O mix containing 0.15 uM cGAMP-^13C10^15N5 as internal standard and mixed for 5 mmn. After centrifugation (3700 rpm, […], […]), 100 uL of each reaction was collected and mixed to equal volume of acetonitrile (MeCN). Samples were then analyzed on Qexactive (Column: XBridge BEH Amide Column, 130 Å, 3.5 μm, 3 mm×50 mm. Mobile phase A: 10 mM Ammonium acetate in 95/5 H2O/MeCN (0.5% DMSO), Mobile phase B: MeCN (0.5% DMSO).
The results of the assay, expressed as IC50 values, are reported in Table D with the following designations: A represents an IC50 value <0.005 μM (with A1 representing an IC50 value <0.0005 μM, A2 representing an IC50 value ≥0.0005 μM and <0.001 μM, and A3 representing an IC50 value ≥0.001 μM and <0.005 μM); B represents an IC50 value ≥0.005 μM and <0.02 μM; C represents an IC50 value ≥0.02 μM and <0.06 μM; and D represents an IC50 value ≥0.06 μM.

Chain of hcGAS (Q8N884 whole entry): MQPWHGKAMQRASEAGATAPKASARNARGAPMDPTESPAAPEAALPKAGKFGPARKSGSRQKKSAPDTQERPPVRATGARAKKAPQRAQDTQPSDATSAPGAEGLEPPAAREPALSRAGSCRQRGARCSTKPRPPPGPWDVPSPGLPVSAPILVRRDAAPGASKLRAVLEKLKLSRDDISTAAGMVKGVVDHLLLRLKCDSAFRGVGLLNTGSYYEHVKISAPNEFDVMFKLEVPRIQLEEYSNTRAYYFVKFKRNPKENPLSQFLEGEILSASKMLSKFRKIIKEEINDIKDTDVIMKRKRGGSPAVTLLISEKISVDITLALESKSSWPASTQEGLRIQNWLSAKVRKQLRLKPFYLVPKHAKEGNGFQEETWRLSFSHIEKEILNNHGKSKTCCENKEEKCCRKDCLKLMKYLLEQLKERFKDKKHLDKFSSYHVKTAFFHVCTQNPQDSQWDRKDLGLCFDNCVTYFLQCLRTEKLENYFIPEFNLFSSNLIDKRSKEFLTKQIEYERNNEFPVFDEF

| SMILES | pIC50 |
| --- | --- |
| COc1cccc(OC)c1-c1cc(C(=O)Nc2nnc(-n3nccc3N)s2)oc(=O)c1OCC(=O)N1CCSCC1 [Compound 90, N-(5-(5-amino-1H-pyrazol-1-yl)-1,3,4-thiadiazol-2-yl)-4-(2,6-dimethoxyphenyl)-2-oxo-3-(2-oxo-2-thiomorpholinoethoxy)-2H-pyran-6-carboxamide] | > 9.30 |
| COCCOc1c(-c2c(OC)cncc2OC)cc(C(=O)Nc2nnc(-n3nccc3N)s2)oc1=O [Compound 28, N-(5-(5-amino-1H-pyrazol-1-yl)-1,3,4-thiadiazol-2-yl)-4-(3,5-dimethoxypyridin-4-yl)-3-(2-methoxyethoxy)-2-oxo-2H-pyran-6-carboxamide] | 8.30 to 9.00 |
| COc1cccc(OC)c1-c1cc(C(=O)Nc2nnc(-n3nccc3N)s2)oc(=O)c1OCCN1C[C@H]2C[C@@H]1CS2 [93B*, 3-(2-((1R,4R)-2-thia-5-azabicyclo[2.2.1]heptan-5-yl)ethoxy)-N-(5-(5-amino-1H-pyrazol-1-yl)-1,3,4-thiadiazol-2-yl)-4-(2,6-dimethoxyphenyl)-2-oxo-2H-pyran-6-carboxamide] | 9.00 to 9.30 |
| COCCOc1c(-c2c(C#N)cccc2OC(F)F)cc(C(=O)Nc2nnc(-n3nccc3N)s2)oc1=O [Compound 74, N-(5-(5-amino-1H-pyrazol-1-yl)-1,3,4-thiadiazol-2-yl)-4-(2-cyano-6-(difluoromethoxy)phenyl)-3-(2-methoxyethoxy)-2-oxo-2H-pyran-6-carboxamide] | 9.00 to 9.30 |
| COCCOc1cccc(OC)c1-c1cc(C(=O)Nc2nnc(-n3nccc3N)s2)oc(=O)c1OCCOC [Compound 27, N-(5-(5-amino-1H-pyrazol-1-yl)-1,3,4-thiadiazol-2-yl)-4-(2-methoxy-6-(2-methoxyethoxy)phenyl)-3-(2-methoxyethoxy)-2-oxo-2H-pyran-6-carboxamide] | 8.30 to 9.00 |
| COc1cccnc1-c1cc(C(=O)Nc2nnc(-n3nccc3N)s2)oc(=O)c1O[C@@H]1CC[C@@H](O)C1 (single isomer, unassigned) [112A*] | 8.30 to 9.00 |
| COc1cccc(OC)c1-c1cc(C(=O)Nc2nnc(-n3nccc3N)s2)oc(=O)c1OCCC(C)(C)O [Compound 59, N-(5-(5-amino-1H-pyrazol-1-yl)-1,3,4-thiadiazol-2-yl)-4-(2,6-dimethoxyphenyl)-3-(3-hydroxy-3-methylbutoxy)-2-oxo-2H-pyran-6-carboxamide] | > 9.30 |
| COCCOc1c(-c2c(C#N)cccc2CO)cc(C(=O)Nc2nnc(-n3nccc3N)s2)oc1=O [Compound 48, N-(5-(5-amino-1H-pyrazol-1-yl)-1,3,4-thiadiazol-2-yl)-4-(2-cyano-6-(hydroxymethyl)phenyl)-3-(2-methoxyethoxy)-2-oxo-2H-pyran-6-carboxamide] | 9.00 to 9.30 |
| COc1cccc(OC)c1-c1cc(C(=O)Nc2nnc(-n3nccc3N)s2)oc(=O)c1O[C@H](CO)CN1CCSCC1 [81A*, (S)-N-(5-(5-amino-1H-pyrazol-1-yl)-1,3,4-thiadiazol-2-yl)-4-(2,6-dimethoxyphenyl)-3-((1-hydroxy-3-thiomorpholinopropan-2-yl)oxy)-2-oxo-2H-pyran-6-carboxamide] | 8.30 to 9.00 |
| COc1cccnc1-c1cc(C(=O)Nc2nnc(-n3nccc3N)s2)oc(=O)c1O[C@@H](C)CO [Compound 107A, (S)—N-(5-(5-amino-1H-pyrazol-1-yl)-1,3,4-thiadiazol-2-yl)-3-((1-hydroxypropan-2-yl)oxy)-4-(3-methoxypyridin-2-yl)-2-oxo-2H-pyran-6-carboxamide] | 8.30 to 9.00 |
| COCCOc1c(-c2ncccc2OC2CC2)cc(C(=O)Nc2nnc(-n3nccc3N)s2)oc1=O [Compound 70, N-(5-(5-amino-1H-pyrazol-1-yl)-1,3,4-thiadiazol-2-yl)-4-(3-cyclopropoxypyridin-2-yl)-3-(2-methoxyethoxy)-2-oxo-2H-pyran-6-carboxamide] | 9.00 to 9.30 |
| COc1cccc(OC)c1-c1cc(C(=O)Nc2nnc(-n3nccc3N)s2)oc(=O)c1OCCOC1CC(O)C1 (stereo not drawn) [102A*, N-(5-(5-amino-1H-pyrazol-1-yl)-1,3,4-thiadiazol-2-yl)-4-(2,6-dimethoxyphenyl)-3-(2-((1s,3s)-3-hydroxycyclobutoxy)ethoxy)-2-oxo-2H-pyran-6-carboxamide] | 9.00 to 9.30 |
| COC[C@H](CO)Oc1c(-c2c(OC)cccc2OC)cc(C(=O)Nc2nnc(-n3nccc3N)s2)oc1=O [Compound 62A*, (S)—N-(5-(5-amino-1H-pyrazol-1-yl)-1,3,4-thiadiazol-2-yl)-4-(2,6-dimethoxyphenyl)-3-((1-hydroxy-3-methoxypropan-2-yl)oxy)-2-oxo-2H-pyran-6-carboxamide] | 9.00 to 9.30 |
| COCCOc1c(-c2ncccc2C#N)cc(C(=O)Nc2nnc(-n3nccc3C)s2)oc1=O [Compound 7, 4-(3-cyanopyridin-2-yl)-3-(2-methoxyethoxy)-N-(5-(5-methyl-1H-pyrazol-1-yl)-1,3,4-thiadiazol-2-yl)-2-oxo-2H-pyran-6-carboxamide] | 8.30 to 9.00 |
| COC[C@@H](O)COc1c(-c2c(OC)cccc2OC)cc(C(=O)Nc2nnc(-n3nccc3N)s2)oc1=O (single isomer, unassigned) [Compound 63B*] | 9.00 to 9.30 |
| COCCOc1c(-c2c(C)cccc2OC)cc(C(=O)Nc2nnc(-n3nccc3N)s2)oc1=O [Compound 11, N-(5-(5-amino-1H-pyrazol-1-yl)-1,3,4-thiadiazol-2-yl)-4-(2-methoxy-6-methylphenyl)-3-(2-methoxyethoxy)-2-oxo-2H-pyran-6-carboxamide] | 9.00 to 9.30 |
| COCCOc1c(-c2ncc(Cl)cc2OC)cc(C(=O)Nc2nnc(-n3nccc3N)s2)oc1=O [Compound 58, N-(5-(5-amino-1H-pyrazol-1-yl)-1,3,4-thiadiazol-2-yl)-4-(5-chloro-3-methoxypyridin-2-yl)-3-(2-methoxyethoxy)-2-oxo-2H-pyran-6-carboxamide] | 9.00 to 9.30 |
| COCCOCCOc1c(-c2c(OC)cccc2OC)cc(C(=O)Nc2nnc(-n3nccc3N)s2)oc1=O [Compound 30, N-(5-(5-amino-1H-pyrazol-1-yl)-1,3,4-thiadiazol-2-yl)-4-(2,6-dimethoxyphenyl)-3-(2-(2-methoxyethoxy)ethoxy)-2-oxo-2H-pyran-6-carboxamide] | 9.00 to 9.30 |
| COc1cccc(OC)c1-c1cc(C(=O)Nc2nnc(-n3nccc3N)s2)oc(=O)c1OC[C@@H](C)O [Compound 46A, (R)—N-(5-(5-amino-1H-pyrazol-1-yl)-1,3,4-thiadiazol-2-yl)-4-(2,6-dimethoxyphenyl)-3-(2-hydroxypropoxy)-2-oxo-2H-pyran-6-carboxamide] | 9.00 to 9.30 |
| COc1cccc(OC)c1-c1cc(C(=O)Nc2nnc(-n3nccc3N)s2)oc(=O)c1OC1CC(O)C1 (single isomer, unassigned) [Compound 57A, N-(5-(5-amino-1H-pyrazol-1-yl)-1,3,4-thiadiazol-2-yl)-4-(2,6-dimethoxyphenyl)-3-((1,3-trans)-3-hydroxycyclobutoxy)-2-oxo-2H-pyran-6-carboxamide] | 9.00 to 9.30 |
| COc1cccc(OC)c1-c1cc(C(=O)Nc2nnc(-n3nccc3N)s2)oc(=O)c1OCCOCCO [Compound 68, N-(5-(5-amino-1H-pyrazol-1-yl)-1,3,4-thiadiazol-2-yl)-4-(2,6-dimethoxyphenyl)-3-(2-(2-hydroxyethoxy)ethoxy)-2-oxo-2H-pyran-6-carboxamide] | > 9.30 |
